Test results published in US6677369B2, “Antithrombotic agents” (Eli Lilly and Company, priority 1997, dated 2004).
Where a name gives a salt, the structure may show the parent alone.

First: CCOc1ccc(C(=O)Nc2ccccc2NC(=O)c2cccc(C(=N)N)c2)cc1 [Example 38, N^1-[3-(amino(imino)methyl)benzoyl]-N^2-(4-ethoxybenzoyl)-1,2-benzenediamine]
Second: CC(C)c1ccc(C(=O)Nc2ccccc2NC(=O)c2cccc(C(=N)N)c2)cc1.Cl
The melting point of the first is lower: 163 to 165 °C for the first, 227 to 229 °C for the second.

Compared with `CC(C)(C)c1ccc(C(=O)Nc2ccccc2NC(=O)c2cccc(C(=N)N)c2)cc1.Cl`, `CC(C)(C)c1ccc(C(=O)Nc2ccccc2C(=O)Nc2cccc(C(=N)N)c2)cc1.Cl` is lower in melting point: 196 to 198 °C for the first, 194 to 196 °C for the second.

`COc1ccc(NC(=O)c2ccccc2NC(=O)c2cccc(C(=N)N)c2)cc1` (as salt: salt) [Example 12, 2-[3-(amino(imino)methyl)benzoylamino]-N-(4-methoxyphenyl)benzamide] showed a melting point of 163 to 167 °C.
